The values below come from patent US11123398B2, “Chemotherapeutic combinations of cationic antimicrobial peptides and chemotherapeutics” (LYTIX BIOPHARMA AS, priority 2014, dated 2021).

Common to all, as to assay type: cell-based, human
The subject of one experiment is Raji cell line. Conditions: 4 h. The method, then: (§1) Tumor cells were plated in 96-well flat-bottom microtitration plates (Nunc, Dutscher, Brumath, France) and incubated at 37° C. for 24 hours before treatment in 190 μl of drug-free and FBS-free culture medium.
(§2) Tumor cells were incubated for 4 hours with 10 concentrations of compounds in ¼ dilution step with a top dose of 400 μM (range 4×10^−4 to […]), with 1% (final concentration) Triton X-100 as positive control and FBS-free culture medium as negative control. The cells (190 μl) were incubated in a 200 μl final volume of FBS-free culture medium containing test substances at 37° C. under 5% CO2.
(§3) Three independent experiments were performed, each concentration being issued from quadruplicate. Control cells were treated with vehicle alone. At the end of treatments, the cytotoxic activity was evaluated by a MTS assay (see § 3.3 below).
(§4) Like MTT, MTS is bioreduced by cells into a formazan product that is directly soluble in culture medium without processing, unlike MTT.
(§5) At the end of the cells treatment, 40 μl of a 0.22 μm filtered freshly combined solution of MTS (20 ml at 2 mg/ml, Ref G1111, Batch 235897, Exp March 2009, Promega, Charbonnières, France) and PMS (1 ml at 0.92 mg/ml, Ref P9625, Batch 065K0961, Sigma) in Dulbecco's Phosphate Buffered Saline (DPBS, Ref 17-513Q, Batch 6MB0152, Cambrex), were added in each well. Culture plates were incubated for 2 h at 37° C. Absorbency (OD) were measured at 490 nm in each well using VICTOR^3™ 1420 multilabeled counter (Wallac, PerkinElmer, Courtaboeuf, France).
(§6) 4.1. IC50 Data was Determined as in Example 1

A further experiment relates to U-937 cell line. The following applies: 4 h. The method, then: as §1, §2, §3, §4, §5, §6
In the next experiment the test system is IGROV-1/CDDP. Nature of the experiment: MTS cytotoxicity assay, IGROV-1/CDDP. Conditions: IC50 resistant / IC50 sensitive line; cisplatin resistance. The method, then: (§7) Tumor cells were plated in 96-well flat-bottom microtitration plates (Nunc, Dutscher, Brumath, France) and incubated at 37° C. for 24 hours before treatment in 190 μl of drug-free culture medium supplemented or not with 10% FBS for adherent or suspension growing cell lines, respectively.
The adherent cell lines were washed once with 200 μl FBS-free culture medium before treatment. Tumor cells were incubated for 4 hours with 10 concentrations of compounds in ¼ dilution step with a top dose of 400 μM (range 4×10^−4 to 4×10^−10 M), with 1% (final concentration) Triton X-100 as positive control and FBS-free culture medium as negative control. The cells (190 μl) were incubated in a 200 μl final volume of FBS-free culture medium containing test substances at 37° C. under 5% CO2.
(§8) Three independent experiments were performed, each concentration being tested in quadruplicate. Control cells were treated with vehicle alone. At the end of treatments, the cytotoxic activity was evaluated by a MTS assay (see § 3.3.).
as §4, §5
(§9) IC50: drug concentration to obtain a 50% inhibition of cell proliferation.
(§10) The dose-response curves were plotted using XLFit 3 (IDBS, United Kingdom). The IC50 determination values were calculated using the XLFit 3 software from semi-log curves. Individual IC50 determination values as well as mean and SD values were generated.
Resistance index was calculated using the following formula: […]
Resistance index was calculated for each compound for each couple of sensitive and resistant cell lines. Individual resistance index was calculated when IC50 values of both sensitive and corresponding resistant cell lines were determined within same experiment. In addition, resistance index was also calculated ratio of mean IC50 values obtained during three independent experiments.
(In general: Tetrazolium assays rely on reduction of a dye to a coloured formazan, in cell work by metabolically active cells.)

In experiment [1] the test system is A375 cells. Put plainly: TEM electron microscopy, A375. The method, then:
A375 cells were seeded at 1×10^5 cells per well in 6-well plates and allowed to grow for three days to optimize membrane structures in the culture, and the media was changed on the second day. Cells were washed twice in serum-free RPMI before being treated with LTX-315 dissolved in serum-free RPMI at 5, 10 and 25 μg/ml, with serum-free RPMI as a negative control. Cells were then washed with PBS twice before fixation for 24 hours in 4° C. with 4% formaldehyde and 1% gluteralaldehyde in a Hepes buffer at pH 7.8. Dehydration and post-fixation protocols included incubation in a 5% buffered tannic acid and incubation in a 1% osmium-reduced ferrocyanide. Ultrathin sections were prepared, and uranyl acetate (5%) and Reynolds's lead citrate were used for staining and contrasting. Samples were examined on a JEOL JEM-1010 transmission electron microscope, and images were taken with an Olympus Morada side-mounted TEM CCD camera (Olympus soft imaging solutions, GmbH, Germany).

Experiment [2] deals with A375 cells. Nature of the experiment: Fluorescence measurement of reactive oxygen species (ROS). The following applies: 15 minutes of incubation; concentration-dependent. On the procedure:
A DCFDA cellular reactive oxygen species detection assay kit was purchased from Abcam®, and A375 cells seeded in a 96-well Costar black clear bottom plate with 20,000 cells per well incubated in 37° C. 16 hours prior to DCFDA assay. Cells were washed with a 100 μL/well of pre-warmed PBS one time, and incubated with 20 μM of DCFDA in a buffer solution supplied with the kit at 37° C. in a cell culture incubator for 45 min, and then washed again with a buffer solution of 100 μL/well. […] The fluorescence intensity was determined at an excitation wavelength of 485 nm and an emission wavelength of 530 nm on a FLUOstar Galaxy plate reader.

Another experiment deals with K-562. The following applies: 24 h. On the procedure:
as §7
(§11) The adherent cell lines were washed once with 200 μl FBS-free culture medium before treatment. […] top dose of 400 μM (range 4×10^−4 to 4×10^−10 M), with 1% (final concentration) Triton X-100 as positive control and FBS-free culture medium as negative control. The cells (190 μl) were incubated in a 200 μl final volume of FBS-free culture medium containing test substances at 37° C. under 5% CO2.
as §8, §4, §5, §9, §10

Experiment [3] deals with HUV-EC-C normal cell line. The following applies: 24 h. The method, then: as §7, §11, §8, §4, §5, §9, §10

Non-standard residues stand in square brackets, D forms with d. Residues, ends and D or L forms follow the SMILES beside them. Dip = N[C@H](C(=O)O)C(c1ccccc1)c1ccccc1

In the case of `NCCCC[C@H](NC(=O)[C@@H](NC(=O)[C@H](Cc1c[nH]c2ccccc12)NC(=O)[C@H](CCCCN)NC(=O)[C@H](CCCCN)NC(=O)[C@H](Cc1c[nH]c2ccccc12)NC(=O)[C@H](Cc1c[nH]c2ccccc12)NC(=O)[C@H](CCCCN)NC(=O)[C@@H](N)CCCCN)C(c1ccccc1)c1ccccc1)C(N)=O` [LTX-315, K-K-W-W-K-K-W-Dip-K-NH2] (H-KKWWKKW[Dip]K-NH2), the IC50 (as a rule, the concentration that gives 50% inhibition) is 4.93 ± 1.03 µM with Raji cell line, 1.15 ± 0.42 µM in the experiment on U-937 cell line, 3.27 µM with K-562 and 23 µM in experiment [3]. Also, the “Resistance index (RI), IGROV-1/CDDP” value in the experiment with IGROV-1/CDDP was determined as 0.50. Further, the “Cells displaying vacuolization (TEM)” value was “approximately 20%” in the experiment on A375 cells [1] (3.5 μM, 60 minutes) and 4% in the experiment on A375 cells [1] (17 μM, 60 min). For the same molecule, the “Number of necrotic cells (TEM)” value in the experiment on A375 cells [1] (3.5 μM, 60 minutes) is recorded as “less than 5%”. In the experiment with A375 cells [1] (17 μM, 60 min), the “Cells with necrotic morphology, loss of plasma membrane integrity (TEM)” value is listed as “approximately 40%”. The ROS generation entry with A375 cells [2] is listed as “Significant amounts of ROS were generated”.
